Data reported in patent publication US20130136836A1, “Taste-Masking Compositions, Sweetener Compositions and Consumable Product Compositions Containing the Same” (Nutrinova Nutrition Specialties & Food Ingredients GmbH, priority 2011, published 2013).

Tests used:
[1] = tested on: panel of trained sensory evaluators; assay: Taste and spit assay, descriptive taste impression versus base samples, panel of 4 trained sensory evaluators (Examples 3 to 13); assay type: in vivo, human; conditions: for further effect added to the composition of the invention: benzaldehyde 0.02 wppm, below its threshold
Description: All tests were conducted under controlled and standardized conditions.
(§1) The samples were prepared by a trained laboratory assistant.
35 ml of the samples were served at room temperature in clear plastic cups.
The following samples comprising a composition of the invention were tested for their ability to improve the taste of artificial sweeteners.
All samples were tested in duplicate and evaluated at least 3 different concentrations in comparison to 3 base samples (samples 1 to 3).
The panelists were asked to evaluate and to describe the taste impression of the samples 4 to 13 containing a sweetener composition comprising acesulfame potassium, sucralose and a composition of the invention, e.g. bitter aftertaste, creaminess, fullness and character of the sweeteners in each case in comparison to the base samples 1 to 3.
The results of the taste and spit assay are based in each case on a qualitative evaluation of the differences between the samples.

[2] = tested on: panel of trained sensory evaluators; assay: Taste and spit assay with regard to sweetness in the aftertaste, panel of 11 trained sensory evaluators (Example 2); assay type: in vivo, human; conditions: 11 panelists; 35 ml at 6.0-8.0 °C; after 2 minutes; qualitative comparison of three samples; FIG. 2
Description: Again the panelists are given samples.
Air was constantly exchanged.
as §1
The panel used the sweetness scale anchored by three concentrations of sucrose:
Sweetness was assessed with the 1st sip (max. 30 ml, min of 15 ml) and scored in the aftertaste (after 2 minutes).
All samples were tested in duplicate.

Compound: O=Cc1ccccc1 [Benzaldehyde, benzaldehyde]
- further effect added to the composition of the invention ([1]; in sample 12 (with naringin, syringaldehyde, massoia lactone, whiskey lactone)): did not add any further effect
- further effect added to the composition of the invention ([1]; in sample 13 (with naringin, 4-methoxy salicylaldehyde, lactones, amino acids; sucralose 75 wppm)): did not add any further effect

Compound: OC[C@H]1O[C@@](CO)(O[C@H]2O[C@H](CO)[C@@H](O)[C@H](O)[C@H]2O)[C@@H](O)[C@@H]1O [saccharose]
- sweetness in the aftertaste [2]: less sweet in the aftertaste than acesulfame potassium and sucralose

Compound: delta-undecalactone
- taste impression of the lactone in the composition ([1]; delta-undecalactone 0.0388 wppm in Sample 14, replacing massoia lactone, 4 panelists): not being too volatile and as adding a creamy taste, and as improving the total composition
